Tests used:
MOLM13 cells = test: Cell proliferation assay (CellTiter-Glo), MOLM13; type: cell-based, human; settings: Homo sapiens, MOLM-13, 288 h; MOLM13 (MLL-AF9), 12 days incubation; read-out: Cell antiproliferation assay MOLM13 IC50
Procedure: (§1) The antiproliferative activity of test compounds was assessed in human leukemia cell lines. The cell line MV4-11, MOLM13 and OCI-AML3, which expresses the MLL fusion protein MLL-AF4, MLL-AF9 and carry the NPM1c gene mutation, respectively, were tested. HL-60 was used as a control cell line containing two MLL wildtype alleles in order to exclude compounds that display general cytotoxic effect. MV4-11 cells were cultured in IMDM supplemented with 10% FBS, MOLM13 and OCI-AML3 cells were cultured in RPMI1640 supplemented with 20% FBS, and HL-60 cells were cultured in IMDM supplemented with 20% FBS. Corresponding cells (MV4-11, MOLM13, OCI-AML3 or HL-60 cell line) were seeded in 100 uL medium per well in 96-well plate (white wall with clear bottom, tissue culture treated, Corning, Cat. No. CLS3903; Lot.No. 30419025). Plates were placed in the CO2 incubator overnight. Compounds solution (2 mM starting, 4-fold serial dilution) were prepared and added to the wells containing 100 μL of the culture medium with HPD300 according to the plate map and centrifuge at 1000 rpm for 1 minutes (200-fold dilution totally). MV4-11, MOLM13, OCI-AML3 and HL-60 cells were incubated with the compounds for 4, 12, 5 and 4 days, respectively, under 5% CO2 at 37° C., respectively. 100 μL of CellTiter-Glo reagent (Promega, Cat. No. G7573, Lot. No. 0000416710) was added to the assay plate by Multidrop Combi instrument, contents were mixed for 10 minutes on an orbital shaker to induce cell lysis. After incubation at room temperature for 10 mins, clear bottom with white back seal was pasted and luminescence with Envision was read.

Menin-MLL1 = biological target: T1, Menin-MLL1 (Homo sapiens, UniProt O00255); test: Menin-MLL1 inhibition assay (fluorescence polarization, Menin protein + FAM-MLL peptide); type: binding; settings: Menin (2-610) isoform 2, FAM-labelled MLL peptide, mP readout; read-out: Biochemical assay Menin-MLL1 IC50
T1 construct: Menin (2-610) isform2; purchased ChemPartner 2020111101
T1 sequence (O00255 2-610): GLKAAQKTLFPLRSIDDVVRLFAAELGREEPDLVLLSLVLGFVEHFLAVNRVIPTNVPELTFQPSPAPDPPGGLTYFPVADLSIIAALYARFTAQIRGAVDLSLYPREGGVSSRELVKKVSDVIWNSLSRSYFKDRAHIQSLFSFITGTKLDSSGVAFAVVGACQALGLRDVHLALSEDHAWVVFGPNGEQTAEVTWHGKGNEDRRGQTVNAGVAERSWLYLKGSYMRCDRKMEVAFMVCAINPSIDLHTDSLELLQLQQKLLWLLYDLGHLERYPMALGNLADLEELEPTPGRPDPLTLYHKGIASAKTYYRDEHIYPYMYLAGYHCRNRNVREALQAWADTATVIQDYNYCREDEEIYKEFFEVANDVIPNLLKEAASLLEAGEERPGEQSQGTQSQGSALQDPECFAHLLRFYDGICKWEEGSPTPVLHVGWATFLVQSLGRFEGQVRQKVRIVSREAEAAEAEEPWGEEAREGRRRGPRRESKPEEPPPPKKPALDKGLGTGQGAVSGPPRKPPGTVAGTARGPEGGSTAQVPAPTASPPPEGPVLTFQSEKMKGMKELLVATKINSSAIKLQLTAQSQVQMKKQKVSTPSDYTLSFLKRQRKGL

hERG potassium channel = biological target: T2, hERG potassium channel (Homo sapiens, UniProt Q12809); test: hERG inhibition study (Qpatch, CHO-hERG cells); type: cell-based; settings: highest test concentration 40 μM
T2 construct: expressed in transfected cells; host or cells: CHO-hERG cells
Procedure: The inhibition effects of the test compounds on hERG were carried out in CHO-hERG cells (cell density: 21.5×10˜6/mL). 10 μL compound mother liquor was added to 20 μL DMSO solution, and then continuously diluted to 6 concentrations by 3-fold. The compound solution (4 uL) of six different concentrations were added to the extracellular solution (996 uL) and diluted to the final concentration to be tested (250-fold dilution totally). The highest test concentration was 40.00 μM, followed by […], 13.3, 4.4, 1.48, 0.49 and 0.16 μM. […] The high impedance sealing of single cell and the formation of whole cell model were all completed automatically by Qpatch instrument.

MV-4-11 cells = test: Cell proliferation assay (CellTiter-Glo), MV-4-11; type: cell-based, human; settings: Homo sapiens, MV4-11, 96 h; MV-4-11 (MLL-AF4), 4 days incubation; read-out: Cell antiproliferation assay MV-4-11 IC50
How it was run: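 Antiproliferative activity by CellTiter-Glo luminescence; MV4-11 (MLL-AF4) in IMDM/10% FBS, 4 days; MOLM13 (MLL-AF9) in RPMI1640/20% FBS, 12 days; OCI-AML3 (NPM1c) in RPMI1640/20% FBS, 5 days; HL-60 (MLL wild-type control) in IMDM/20% FBS, 4 days. Compounds 4-fold serial from 2 mM stock, 200-fold final dilution; 37 °C, 5% CO2.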

OCI-AML3 cells = test: Cell proliferation assay (CellTiter-Glo), OCI-AML3; type: cell-based, human; settings: Homo sapiens, OCI-AML-3, 120 h; OCI-AML3 (NPM1c mutation), 5 days incubation; read-out: Cell antiproliferation assay OCI-AML3 IC50
Procedure: as §1

HL-60 cells = test: Cell proliferation assay (CellTiter-Glo), HL-60 control line; type: cell-based, human; settings: Homo sapiens, 96 h, 4 days incubation; for IC50: HL-60 control line (MLL wildtype), read-out: Cell antiproliferation assay HL-60 IC50; for inhibition at 10 µM: HL-60 control line, read-out: HL-60 (Pct of inhibition at 10 μM)
Procedure: as §1

[1] = Liver microsome stability study; type: in vitro ADME; settings: human liver microsomes 0.5 mg/mL, 1 μM compound, NADPH, 37° C.; read-out: Human liver microsome T1/2
Procedure: Studies were carried out in liver microsomes (Corning, 0.5 mg/mL). Stock solutions were prepared at 10 mM in DMSO for the test compounds. Aliquots of the stock solutions were diluted to 0.5 mM with acetonitrile, and then further diluted upon the addition of liver microsomes/buffer to 1.5 μM. An aliquot of 30 μL of 1.5 μM solutions was mixed with 15 μL of 6 mM NADPH and the final concentration of NADPH was 2 mM, which had been pre-warmed to 37° C. Test compounds and Ketanserin final concentrations were 1 μM. The plates were kept in a 37° C. water bath for the duration of the experiment. At each time point (0, 5, 15, 30, 45 minutes), 135 μL of acetonitrile was added into corresponding wells. After the final time point was quenched by acetonitrile, the assay plates were shaken at the vibrator (IKA, MTS 2/4) for 10 min (600 rpm/min) and then centrifuged at 5,594 g for 15 min (Thermo Multifuge×3R). Aliquots of the supernatant were taken, diluted 1:1 into distilled water, and analyzed by LC-MS/MS. The peak area response ratio to internal standard (PARR) of the compounds at 5, 15, 30, 45 minutes was compared to the PARR at time 0 to determine the percent of test compound remaining at each time point. Half-lives were calculated using Excel software, fitting to a single-phase exponential decay equation.

T2 sequence (Q12809 whole entry): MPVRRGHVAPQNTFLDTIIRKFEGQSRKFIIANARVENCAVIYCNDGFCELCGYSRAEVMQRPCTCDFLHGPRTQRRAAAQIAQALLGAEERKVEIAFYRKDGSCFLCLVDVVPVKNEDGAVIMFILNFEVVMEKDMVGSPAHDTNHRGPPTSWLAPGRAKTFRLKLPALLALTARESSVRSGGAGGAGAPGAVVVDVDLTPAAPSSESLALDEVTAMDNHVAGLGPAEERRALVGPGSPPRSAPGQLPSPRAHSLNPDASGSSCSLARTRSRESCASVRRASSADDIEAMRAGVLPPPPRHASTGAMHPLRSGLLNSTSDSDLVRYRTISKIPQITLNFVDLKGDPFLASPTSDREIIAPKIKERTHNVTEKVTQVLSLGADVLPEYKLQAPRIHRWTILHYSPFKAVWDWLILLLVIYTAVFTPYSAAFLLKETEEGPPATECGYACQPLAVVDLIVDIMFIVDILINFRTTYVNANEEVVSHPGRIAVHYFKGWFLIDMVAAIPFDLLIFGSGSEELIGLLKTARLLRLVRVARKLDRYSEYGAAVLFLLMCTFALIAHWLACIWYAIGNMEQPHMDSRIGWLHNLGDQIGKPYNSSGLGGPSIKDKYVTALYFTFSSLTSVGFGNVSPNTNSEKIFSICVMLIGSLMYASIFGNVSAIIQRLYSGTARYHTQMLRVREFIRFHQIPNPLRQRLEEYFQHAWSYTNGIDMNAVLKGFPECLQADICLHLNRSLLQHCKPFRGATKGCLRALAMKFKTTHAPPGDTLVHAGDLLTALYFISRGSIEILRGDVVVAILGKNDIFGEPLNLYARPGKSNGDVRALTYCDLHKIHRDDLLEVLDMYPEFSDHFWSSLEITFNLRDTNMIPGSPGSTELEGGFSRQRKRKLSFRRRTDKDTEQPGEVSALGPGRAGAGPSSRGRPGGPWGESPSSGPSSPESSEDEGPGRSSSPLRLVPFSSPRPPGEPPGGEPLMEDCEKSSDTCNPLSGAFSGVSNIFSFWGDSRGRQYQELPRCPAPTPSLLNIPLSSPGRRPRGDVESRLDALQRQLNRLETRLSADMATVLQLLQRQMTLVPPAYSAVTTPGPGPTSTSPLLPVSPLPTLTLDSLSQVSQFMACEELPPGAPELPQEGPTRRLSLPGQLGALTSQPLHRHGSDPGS

SMILES	IC50 (MOLM13 cells) [nM]	IC50 (Menin-MLL1) [nM]	IC50 (hERG potassium channel) [nM]	IC50 (MV-4-11 cells) [nM]	IC50 (OCI-AML3 cells) [nM]	IC50 (HL-60 cells) [nM]	inhibition at 10 µM (HL-60 cells) [%]	half-life at 1 μM [1] [h]
CCN(C(=O)c1cc(F)ccc1Oc1nncnc1N1CC2(CCN(C(=O)[C@H]3NC[C@H]4[C@@H]3C4(C)C)CC2)C1)C(C)C (stereo in doubt) [Example 68]	46.1	4.1	> 40000	13.8	68.3	> 10000	14.1	
CCN(C(=O)c1cc(F)ccc1Oc1cncnc1N1CC2(CCN(C(=O)[C@@H]3C[C@@H](F)CN3)CC2)C1)C(C)C [Example 2, N-ethyl-5-fluoro-2-[(4-{7-[(2S,4R)-4-fluoropyrrolidine-2-carbonyl]-2,7-diazaspiro[3.5]nonan-2-yl}pyrimidin-5-yl)oxy]-N-(propan-2-yl)benzamide]	62.4	4.3	> 40000	20.3	102	> 10000	-30.1	
CCN(C(=O)c1cc(F)ccc1Oc1nncnc1N1CC2(CCN(C(=O)[C@@H]3C[C@@H](F)CN3)CC2)C1)C(C)C [Example 39, N-ethyl-5-fluoro-2-[(5-{7-[(2S,4R)-4-fluoropyrrolidine-2-carbonyl]-2,7-diazaspiro [3.5]nonan-2-yl}-1,2,4-triazin-6-yl)oxy]-N-(propan-2-yl) benzamide]		4.2		43		> 10000	-24.9	1.57
CCN(C(=O)c1cc(F)ccc1Oc1nncnc1N1CC2(CCN(C(=O)[C@H]3NC[C@@H]4C[C@@H]43)CC2)C1)C(C)C [Example 55]	61.9	2.3	> 40000	14.2	186	> 10000	-5	2.65
CCN(C(=O)c1cc(F)ccc1Oc1nncnc1N1CC2(CCN(C(=O)[C@H]3NCC[C@@H]3C)CC2)C1)C(C)C [Example 57]	57.8	5.3	> 40000	13	144	> 10000	-16.4	1.75
CCN(C(=O)c1cc(F)ccc1Oc1nncnc1N1CC2(CCN(C(=O)[C@@H]3C[C@@H](C)CN3)CC2)C1)C(C)C [Example 60]		4.5	> 40000	40.1		> 10000	-8.4	1.98
O=C([C@@H]1C[C@@H](F)CN1)N1CCC2(CC1)CN(c1ncnnc1Oc1ccc(F)cc1-c1cncnc1C1CC1)C2 [Example 62]		3.4		39.5		> 10000	-9.1	1.43
CCN(C(=O)c1cc(F)ccc1Oc1nncnc1N1CC2(CCN(C(=O)[C@H]3NCC[C@H]3C)CC2)C1)C(C)C [Example 63]		3.5		43.4				2.08
CCN(C(=O)c1cc(F)ccc1Oc1nncnc1N1CC2(CCN(C(=O)[C@H]3NCCC3(C)C)CC2)C1)C(C)C [Example 65]	57	3.1		15.1		> 10000	-3.7	1.12
C[C@@H]1CCN[C@@H]1C(=O)N1CCC2(CC1)CN(c1ncnnc1Oc1ccc(F)cc1-c1cncnc1C1CC1)C2 [Example 69]		4.4		56.4				2.57
C[C@H]1CN[C@H](C(=O)N2CCC3(CC2)CN(c2ncnnc2Oc2ccc(F)cc2-c2cncnc2C2CC2)C3)C1 [Example 72]		5.5		56.3				2.63
CCN(C(=O)c1cc(F)ccc1Oc1nncnc1N1CC2(CCN(C(=O)[C@H]3NC[C@@H]4CCC[C@@H]43)CC2)C1)C(C)C [Example 74]	14.9	4.6	> 40000	5.6	30.9	> 10000	7.9	
C[C@H]1CCN[C@@H]1C(=O)N1CCC2(CC1)CN(c1ncnnc1Oc1ccc(F)cc1-c1cncnc1C1CC1)C2 [Example 77]		3.4	> 40000	17.3		> 10000	17.5	1.35
O=C([C@H]1NC[C@@H]2CCC[C@@H]21)N1CCC2(CC1)CN(c1ncnnc1Oc1ccc(F)cc1-c1cncnc1C1CC1)C2 [Example 82]	12.3	4.2	29400	5.6	11.2	> 10000	22.3	
CCN(C(=O)c1cc(F)ccc1Oc1nncnc1N1CC2(CCN(C(=O)[C@H]3NCC[C@@H]3OC)CC2)C1)C(C)C [Example 84]	60.9	5.1		20	67.1	> 10000	15.1	1.13
CCN(C(=O)c1cc(F)ccc1Oc1nncnc1N1CC2(CCN(C(=O)[C@@H]3C[C@H](C)CN3)CC2)C1)C(C)C [Example 87]		4.9		41.6				1.1
